The subject of one experiment is human CD3^+ T cells. Nature of the experiment: Human CD3+ T cells expanded with CD3/CD28 beads under CAL-101 or AKTi. The class given is cell-based. The protocol: (§1) Pmel-1 CD8^+ T cells were prepared from whole splenocytes activated using 1 μM hgp100 peptide+100 IU rhIL-2/mL. Starting 3 hours after initial activation, cells were treated with either DMSO vehicle, AKT inhibitor VIII (AKTi) (Calbiochem), or CAL-101 (Selleckchem) at indicated doses. Cells were supplemented with culture media containing 100 IU rhIL-2/mL and vehicle or drug when expanded. Human Normal Donor Peripheral T cells: Polyclonal CD3^+ T cells were prepared via negative bead selection (Dynal) from peripheral blood lymphocytes and activated using CD3/CD28 beads (Gibco) with 100 IU rhIL-2/mL DMSO vehicle, 1 μM or 10 μM AKTi or CAL-101 throughout culture as indicated. On day 2 of culture, T cells were engineered to be mesothelin specific via lentiviral transduction with an anti-mesothelin chimeric antigen receptor (CAR) which contained a single-chain variable fragment (scFv) fusion protein specific for mesothelin and linked to the T cell receptor ζ (TCRζ) signaling domain and 4-1BB as described previously (Carpenito et al., 2009) (gifts from the June lab).
(§2) Surface staining of Th17 cells was performed with anti-CD4-APCCy7, anti-Vβ14-FITC (BD Biosciences) anti-CD62L-APC, anti-CD44-PerCPCy5.5, anti-CCR6-PE, anti-CD69-PECy7, anti-CCR7-PE, anti-CD27-PE, anti-CD28-PerCPCy5.5, anti-ICOS-PE and anti-CD25-PECy7/FITC (BioLegend) and viability stain (Invitrogen) on day 8. For all intracellular staining of cytokines (anti-IL-17 PerCPCy5.5, anti-IFN-γ-v450, anti-IL-2-FITC, anti-IL-21-APC, anti-IL-22-PE, anti-TNF-α-FITC; BioLegend) and transcription factors (anti-RORγt-APC, anti-cMaf-PerCPCy5.5, anti-STAT-3-PE, anti-FoxP3-FITC/PE, anti-T-bet-v450; eBiosciences), cells were stimulated for 4-5 h with 50 ng/mL PMA and 750 ng/mL ionomycin (Sigma-Aldrich). Additional antibodies used include: CD127-PECy7 clone A019D5, CD25-APCCy7 clone BC96, CD4-APCCy7 OKT4, CD45RO-APC clone UCHL1, CD62L-FITC clone DREG-56, CD8-PerCPCy5.5 clone SKI, TIM3-PE clone F38-2E2 (biolegend); CCR7-PECy7 clone CCR7, CD8-V450 clone RPA-T8, PD1-FITC clone M1H4, (BD Biosciences). Antibodies used for mouse cell analysis: CD127-PE/V450 clone A7R34, CD25-FITC clone 7D4, CD44-PerCPCy5.5/FITC clone IM7, CD69-PECy7 clone HI.2F3, CD8-PerCPCy5.5 clone 53-6.7, CD8-PECy7 clone YTS156.7.7, PD1-PerCPCy5.5 clone 29F.1A12 V[…]13-PE/APC clone MR12-3/MR12-4 (Biolegend), CD4-APCCy7 clone RM4-5, CD62L-APC clone MEL-14, KLRG1-APC/V450 clone 2F1 (BD). After 1 h, Monensin (BioLegend) was added per manufacturer's instructions. After surface staining, intracellular staining for cytokines and transcription factors was performed using Fixation and Permeabilization buffers (BioLegend) and Foxp3 Staining Buffers (eBioscience), respectively. Flow cytometry acquisition was performed on a FACSVerse or Accuri (BD Bioscience). Data were analyzed with FlowJo software (TreeStar). For experiments with sorted cells, CD8^+Vb13^+ T cells were sorted from pmel-1 cultures using Dynabeads untouched mouse CD8^+ T cell kit (Invitrogen) and a FACSAria cell sorting machine (BD Biosciences).

A further experiment deals with pmel-1 CD8^+ T cells. The experiment is described as follows: pmel-1 CD8+ T cells primed with AKTi or CAL-101 in culture: phenotype and expansion. The class given is cell-based, mouse. Here is the method:
as §1, §2

Experiment [1] deals with human T cells. The experiment is described as follows: Western blot of nuclear β-catenin, Lef1, Tcf7 in human T cells. The experiment is classed as cell-based. The protocol: (§3) Nuclear and cytoplasmic protein were isolated by lysis using Nuclear and Cytoplasmic Extraction Reagent with Protease&Phosphatase Inhibitor Cocktail (ThermoScientific). Protein concentration was quantified using […] (ThermoScientific) according to the manufacturer's instructions. 10 to 30 μg of total protein was separated on a Mini-PROTEAN TGX, Any kD™ gel, followed by transfer onto PVDF membrane (Bio-Rad). The membranes were blocked with 5% BSA in TBS buffer containing 0.5% Tween20. The membranes were then incubated overnight at 4° C. with the primary antibodies to β-catenin (BD Bioscience), p110δ, Tcf7 (Abcam), RORγt (Affymetrix) phospho-Akt, total-Akt, STAT-3, Histone-3, Lef1 (abcam), and GAPDH (Cell Signaling) at the concentration recommended by manufactures. Subsequently, membranes were washed and incubated for 1 h at room temperature with (HRP)-conjugated goat antibodies to mouse or rabbit IgG (Cell Signaling). For detection of protein, chemiluminescence method was performed using Western ECL Blotting Substrate (Bio-Rad) followed by X-ray film-based imaging method (ThermoScientific). Quantification of optical density performed using Fiji analysis software (NIH).
(In general: A western blot detects proteins with antibodies after separation by electrophoresis.)

Experiment [2] concerns human T cells. Nature of the experiment: RNA sequencing of CAL-101 or AKTi treated human T cells. The class given is cell-based. Particulars: vs vehicle. The protocol:
Library preparation: mRNA libraries were prepared in triplicate from each donor using the TruSeq RNA V2 kit(Illumina). Cleaved RNA fragments were copied into first strand cDNA then underwent second strand cDNA synthesis. End repair of cDNA fragments, single ‘A’ base addition and ligation to the adapter followed. The product was then purified and enriched with PCR to create the final cDNA library. Transcriptome sequencing: cDNA libraries were clonally clustered onto the sequencing flow cell using the c-BOT (Illumina) Cluster Generation Station and Hiseq Rapid Paired-End Cluster Kit v2 (Illumina). Clustered flow cells were sequenced on the Illumina HiSeq2500 Sequencing System using the Hiseq Rapid SBS Kit V2 (Illumina). Analysis: Differential gene expression analysis contrasting the factors representing different treatment protocols (CAL101 vs Vehicle; or AKTi vs Vehicle) was performed by running kallisto on the raw paired-end RNA sequencing data (in FASTQ format) to estimate transcript-level read counts based on Ensembl GRCh37 cDNA assembly for each sample (NCBI GEO database Accession Number: GSE101497). Estimated transcript-level counts were aggregated across official gene symbols using the tximport package with mapping provided by the biomaRt utility. […]

The subject of experiment [3] is ICOS-activated Th17 cells. The experiment is described as follows: Transcription factor expression (RORγt, cMaf, STAT-3) in ICOS-activated Th17 cells. The experiment is classed as cell-based, mouse. The settings on record: day 8. Here is the method:
(§4) Expansion of Th17 cells with Wnt/β-catenin and PI3K inhibitors in vitro: TRP-1 splenocytes were activated with irradiated (10Gy) C57BL/6 splenocytes pulsed with TRP-1 peptide (1 μM) added at a 5:1 ratio in 24-well plates (1 mL media containing 1.5×10^6 cells/well). TRP-1 splenocytes were co-stimulated with soluble ICOS agonist (Clone 398.4A, BioLegend) and polarized toward Th17 phenotype as describe above. For in vitro expansion from day 0 of culture 10 μM Ly294002 (Cayman Chemical) or 10 μM CAL-101 (Selleckchem) and/or 60 μM indomethacin (Sigma-Aldrich) was added. Also dimethylosulfoxide 0.01% (Sigma-Aldrich) was added as a control. Th17 cultures were also supplemented with hrIL-2 (100 IU/mL) and rmIL-23 ([…]; R&D). Medium, including cytokines and inhibitors was refreshed every 2-3 days.
as §3, with “Subsequently, membranes were washed and incubated for 1 h at room temperature with (HRP)-conjugated goat antibodies to mouse or rabbit IgG (Cell Signaling). For detection of protein, chemiluminescence method was performed using Western ECL Blotting Substrate (Bio-Rad) followed by X-ray film-based imaging method (ThermoScientific).” left out
Surface staining of Th17 cells was performed with anti-CD4-APCCy7, anti-Vβ14-FITC (BD Biosciences) anti-CD62L-APC, anti-CD44-PerCPCy5.5, anti-CCR6-PE, anti-CD69-PECy7, anti-CCR7-PE, anti-CD27-PE, anti-CD28-PerCPCy5.5, anti-ICOS-PE and anti-CD25-PECy7/FITC (BioLegend) and viability stain (Invitrogen) on day 8. […] Data were analyzed with FlowJo software (TreeStar). […]

Experiment [4] concerns ICOS-activated Th17 cells. Nature of the experiment: Cytokine production of ICOS-stimulated TRP-1 Th17 cells expanded with inhibitors (intracellular FACS). The class given is cell-based, mouse. Here is the method:
as §4, §2

The subject of the next experiment is Wnt/β-catenin pathway. Nature of the experiment: Wnt/β-catenin pathway expression in Th17 cells (Western blot, real-time PCR). The class given is cell-based, mouse. The settings on record: re-stimulation in vitro; compared to control Th17 cells. The protocol:
Total RNA isolation was performed using the Trizol method (Life Technologies) according to the manufacturer's procedure. RNA quantity and purity was assessed using a NanoDrop ND-1000. 1 μg total RNA was transcribed with Transcriptor First Strand cDNA Synthesis Kit (Roche). qReal-time PCR was performed on LightCycler480 machine following manufacturer's protocols (Roche). Probes utilized include Rorc, IL-17, Cmaf IL-21, Cpt-1a, Tcf-7, Lef-1, Cnnb1. All probes are commercially available (ABI). Relative gene expression was determined by the comparative CT method (45). β-actin was used as housekeeping gene.
as §3

The subject of experiment [5] is ICOS-activated Th17 cells. Nature of the experiment: Memory and regulatory phenotype of ICOS-stimulated Th17 cells expanded with inhibitors (flow cytometry). The experiment is classed as cell-based, mouse. The protocol: as §4
Surface staining of Th17 cells was performed with anti-CD4-APCCy7, anti-Vβ14-FITC (BD Biosciences) anti-CD62L-APC, anti-CD44-PerCPCy5.5, anti-CCR6-PE, anti-CD69-PECy7, anti-CCR7-PE, anti-CD27-PE, anti-CD28-PerCPCy5.5, anti-ICOS-PE and anti-CD25-PECy7/FITC (BioLegend) and viability stain (Invitrogen) on day 8. For all intracellular staining of cytokines (anti-IL-17 PerCPCy5.5, anti-IFN-γ-v450, anti-IL-2-FITC, anti-IL-21-APC, anti-IL-22-PE, anti-TNF-α-FITC; BioLegend) and transcription factors (anti-RORγt-APC, anti-cMaf-PerCPCy5.5, anti-STAT-3-PE, anti-FoxP3-FITC/PE, anti-T-bet-v450; eBiosciences), cells were stimulated for 4-5 h with 50 ng/mL PMA and 750 ng/mL ionomycin (Sigma-Aldrich). Additional antibodies used include: CD127-PECy7 clone A019D5, CD25-APCCy7 clone BC96, CD4-APCCy7 OKT4, CD45RO-APC clone UCHL1, CD62L-FITC clone DREG-56, CD8-PerCPCy5.5 clone SKI, TIM3-PE clone F38-2E2 (biolegend); CCR7-PECy7 clone CCR7, CD8-V450 clone RPA-T8, PD1-FITC clone M1H4, (BD Biosciences). […] Data were analyzed with FlowJo software (TreeStar). […]

[6] abbreviates: 8 days of expansion, CAL-101 10 μM, Indo 60 μM, Ly294002 10 μM, vs un-treated Th17 cells.

Turning to `O=c1[nH]c2ccccc2n1C1CCN(Cc2ccc(-c3nc4cc5[nH]cnc5cc4nc3-c3ccccc3)cc2)CC1` [AKTi], in the experiment with human CD3^+ T cells, the CD25 expression result is recorded as “did not impact” and the CD45RO levels entry is given as “similar”. In the experiment with human CD3^+ T cells (10 μM drug, 8 days), the “growth of human T cells” value is listed as “dramatically inhibited growth”. Also, the CD62L expression result in the experiment on human CD3^+ T cells (over vehicle) is on record as “slightly increased”. In the experiment with human CD3^+ T cells (post-activation, vs untreated T cells), the TIM3 expression entry was “prevented the up-regulation”. In the experiment with pmel-1 CD8^+ T cells (10 μM drug), the “logarithmic expansion of mouse pmel-1 CD8+ T cells” value is “neither 10 μM AKTi or 10 μM CAL-101 impaired”. For the same molecule, the CD69 expression result in the experiment on pmel-1 CD8^+ T cells (5 days of culture) is given as “decreased”. In addition, in the experiment on pmel-1 CD8^+ T cells (5 days of culture, vehicle 65%), the “cells expressing CD62L” value is “nearly all”. Further, in the experiment with pmel-1 CD8^+ T cells (in culture), the CD25 expression result was “slightly reduced” and the CD127 expression entry is listed as “substantially elevated”. Further, the “nuclear Lef1 protein” value with human T cells [1] was “slightly higher, though not statistically significant”. For the same molecule, the “nuclear Tcf7 protein” value in the experiment on human T cells [1] (over vehicle) is listed as “did not”. Besides, the “effector transcripts Fos, JunB, Gzmb, Ifng” value in the experiment with human T cells [2] is listed as “down-regulated”.

Take `CC[C@H](Nc1ncnc2[nH]cnc12)c1nc2cccc(F)c2c(=O)n1-c1ccccc1` [CAL-101]: the “CD62L+ cells before transfer” value in the experiment with pmel-1 CD8^+ T cells (sort experiment, bulk vehicle 37%) was determined as 97%. The molecule further showed a cMaf expression in experiment [3] (control 62.9±4.8%) of 42.5±3.9%. For the same molecule, the RORγt expression in experiment [3] (control 65.5±9.5%) worked out at 21.9±8.1%. For the same molecule, in experiment [3] (control approximately 83%), the STAT-3 expression is on record as 13.8±5.2%.

For `O=c1cc(N2CCOCC2)oc2c(-c3ccccc3)cccc12` [Ly294002, 2-(4-morpholinyl)-8-phenyl-4H-1-benzopyran-4-one], in experiment [4] (setting [6]), the IFN-γ production entry is given as “suppress” and the IL-17A production result is recorded as “suppress”. The “cytokine secretion pattern overall” value in experiment [4] (compared with the results for CAL-101 or Indo plus CAL-101) is on record as “Similarly results were obtained”. Besides, in the experiment with Wnt/β-catenin pathway, the “Tcf7 protein level after re-stimulation” value is recorded as “could not replace the CAL-101 effect on Tcf7 overexpression”. Besides, the “FoxP3 and CD25 expression” value in experiment [5] (cultured 8 days and upon secondary stimulation in vitro) was “expressed more FoxP3 and CD25”. Besides, the “central memory phenotype (CD44^highCD62L^high)” value in experiment [5] (day 8 in vitro) is given as “also supported generation of TCM17 cells”.

These data come from US20200283728A1, “MODIFIED T CELLS AND USES THEREOF” (MUSC FOUNDATION FOR RESEARCH DEVELOPMENT, priority 2017, published 2020).
